# Measured values as given in paper PMC9145622, “Synthesis, Biological Evaluation, and Docking Studies of Antagonistic Hydroxylated Arecaidine Esters Targeting mAChRs” (Molecules, 2022).
# How the values were obtained:
# hM3 = hM3 (Homo sapiens, UniProt P20309); test: Competitive [3H]NMS radioligand binding, CHO-K1 membranes expressing hM3; settings: [3H]NMS, CHO-hM3 cell membrane preparations; read-out: Affinity: Ki ± SD hM3
# Description: (§1) The arecaidine esters’ affinities towards the human mAChR subtypes hM1–hM5 were studied in a competitive radioligand binding assay using CHO-K1 cell membrane homogenates expressing a single mAChR subtype and tritiated N-methyl scopolamine methyl chloride ([^3H]NMS). To speed up our affinity testing regime, we subjected all test substances to preliminary single-concentration displacement assays, as described previously. Compounds with percent displacements below 75% at any of the subtypes were dropped from further investigations (Table S1). For compounds meeting the percent displacement threshold (8c, 10b, 10c, 17b, 18b, and 25), inhibition constants (Ki) were assessed in dose-dependent displacement experiments (Table 2).
# (§2) Cell membranes bearing hM1-hM5 receptors were prepared as described previously. Briefly, stably transfected CHO-K1 cells were grown to at least 80% confluency in T175 flasks, washed with ice-cold DPBS, and scraped into a mixture of ice-cold 2 mL 10 mM Tris-HCl, 1 mM EDTA-buffer, pH 7.4 and 200 µL protease inhibitor. A cell homogenate was prepared by passing the cell suspension through a G29 needle. The cell homogenates corresponding to two T175 flasks were combined and subsequently centrifuged (10 min, 1000× g, 4 °C). Ultracentrifugation of the supernatant (1 h, 100,000× g, 4 °C) yielded a membrane pellet, which was suspended in 250 µL 50 mM Tris-HCl buffer, pH 7.4 and stored at −80 °C.
# (§3) Then, 5 µL of test compound in DMSO, 50 µL of [^3H]NMS in assay buffer, and 445 µL of membrane suspension in assay buffer were incubated for 90 min at 23 °C in PP tubes. Maximum binding was measured by using 5 µL DMSO, and nonspecific binding was measured by using 5 µL of 1 µM scopolamine in DMSO. The effective concentration of [^3H]NMS was 0.2 nM, 0.3 nM, 0.8 nM, 0.2 nM, and 1 nM for M1–M5 and 4–30 µg membrane were used per tube. The membrane-bound radioactivity was recovered by filtration through Whatman™ GF/B glass fiber filters presoaked in aqueous 0.1% PEI using an M-36 tygon tubed cell harvester (Brandel®, Gaithersburg, MD, USA). Membranes were washed three times with ice-cold washing buffer (50 mM Tris, pH 7.4) before being dried, transferred to 2 mL scintillation cocktail (UltimaGold™, high flashpoint LSC cocktail, PerkinElmer, Waltham, MA, USA) and counted in a β-counter (Hidex TDCR liquid scintillation counter in CPM mode). IC50 values were calculated by a variable slope logistic regression using at least five distinct concentrations of test compounds, pipetted in triplicates.
# [1] = High-throughput HPLC-logD; assay type: physicochemical; settings: octadecyl-poly(vinyl alcohol) column, methanol / 0.01 M sodium phosphate buffer pH 7.4
# Description: For this, logD values were estimated in an HPLC-based high-throughput assay employing an octadecyl-poly(vinyl alcohol) stationary phase. The absence of silanol groups renders this type of column especially suited in case of analytes with hydrogen bond donor capabilities as it avoids overestimating their lipophilicity.
# Briefly, a mixture of toluene (≥98%, Sigma-Aldrich, St. Louis, MO, USA) and triphenylene (≥99.9%, Carl Roth, Karlsruhe, Germany) was used as internal standard. Samples were dissolved in the internal standard mixture. Using gradient elution, the injection volume was set to 7 µL, the flow rate was 1.5 mL/min, and the mobile phase consisted of a mixture of methanol and 0.01 M sodium phosphate buffer pH 7.4. The HPLC-logD values were derived from the measured retention times following the previously published equation [21, 40].
# hM2 = molecular target: T1, hM2 (Homo sapiens, UniProt P08172); test: Competitive [3H]NMS radioligand binding, CHO-K1 membranes expressing hM2; settings: [3H]NMS, CHO-hM2 cell membrane preparations; >1000 values from two independent (single-concentration) experiments; read-out: Affinity: Ki ± SD hM2
# T1 sequence (P08172 1-466): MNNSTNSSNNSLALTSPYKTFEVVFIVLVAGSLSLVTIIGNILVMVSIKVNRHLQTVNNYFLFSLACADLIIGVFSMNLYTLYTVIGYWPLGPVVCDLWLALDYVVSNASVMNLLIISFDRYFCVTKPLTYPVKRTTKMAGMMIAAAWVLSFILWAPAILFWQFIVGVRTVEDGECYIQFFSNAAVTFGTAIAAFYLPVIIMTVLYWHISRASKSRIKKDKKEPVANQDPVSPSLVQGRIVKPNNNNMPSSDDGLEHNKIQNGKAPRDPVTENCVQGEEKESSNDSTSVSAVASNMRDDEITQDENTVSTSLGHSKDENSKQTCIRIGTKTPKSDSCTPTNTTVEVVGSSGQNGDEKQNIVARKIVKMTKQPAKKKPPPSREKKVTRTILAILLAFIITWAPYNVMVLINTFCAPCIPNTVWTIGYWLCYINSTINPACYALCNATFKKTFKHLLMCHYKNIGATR
# Description: as §1, §2, §3
# hM4 = molecular target: T2, hM4 (Homo sapiens, UniProt P08173); test: Competitive [3H]NMS radioligand binding, CHO-K1 membranes expressing hM4; settings: [3H]NMS, CHO-hM4 cell membrane preparations; read-out: Affinity: Ki ± SD hM4
# T2 sequence (P08173 1-479): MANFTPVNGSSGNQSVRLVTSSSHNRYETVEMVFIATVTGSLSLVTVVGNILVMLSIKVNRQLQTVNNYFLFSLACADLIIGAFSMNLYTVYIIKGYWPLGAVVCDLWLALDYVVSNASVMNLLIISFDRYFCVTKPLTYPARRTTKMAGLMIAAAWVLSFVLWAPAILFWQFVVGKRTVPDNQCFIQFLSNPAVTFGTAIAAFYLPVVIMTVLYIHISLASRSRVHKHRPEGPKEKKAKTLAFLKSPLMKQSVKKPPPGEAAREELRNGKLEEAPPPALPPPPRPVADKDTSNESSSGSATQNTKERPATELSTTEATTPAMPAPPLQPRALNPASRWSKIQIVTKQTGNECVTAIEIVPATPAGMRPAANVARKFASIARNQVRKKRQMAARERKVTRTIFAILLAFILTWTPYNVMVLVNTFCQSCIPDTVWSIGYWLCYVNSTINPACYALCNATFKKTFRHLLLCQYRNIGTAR
# Description: as §1, §2, §3
# Sequence of hM3 (P20309 whole entry): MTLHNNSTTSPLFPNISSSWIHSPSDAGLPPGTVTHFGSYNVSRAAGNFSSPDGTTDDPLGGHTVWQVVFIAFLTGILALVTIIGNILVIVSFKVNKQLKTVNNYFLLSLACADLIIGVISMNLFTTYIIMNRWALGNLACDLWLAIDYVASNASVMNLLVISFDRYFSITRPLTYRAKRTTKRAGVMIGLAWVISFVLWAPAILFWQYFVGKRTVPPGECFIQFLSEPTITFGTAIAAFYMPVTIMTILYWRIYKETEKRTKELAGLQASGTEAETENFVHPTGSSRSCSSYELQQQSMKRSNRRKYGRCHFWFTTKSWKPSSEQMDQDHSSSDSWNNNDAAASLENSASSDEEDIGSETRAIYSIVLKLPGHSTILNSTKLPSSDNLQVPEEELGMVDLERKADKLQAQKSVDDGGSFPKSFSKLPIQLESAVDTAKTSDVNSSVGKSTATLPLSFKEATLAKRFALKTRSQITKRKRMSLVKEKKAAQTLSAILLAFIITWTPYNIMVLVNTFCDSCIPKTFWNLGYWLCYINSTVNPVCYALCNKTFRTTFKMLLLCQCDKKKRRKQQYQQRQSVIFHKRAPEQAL
Ki (hM3) [nM],chromatographic logD [1],Ki (hM2) [nM],Ki (hM4) [nM],melting point [°C],SMILES
283 ± 20,2.69 ± 0.01,> 1000,217 ± 23,150 to 153,"CN1CCC=C(C(=O)OCC(O)(c2ccccc2)c2ccccc2)C1 [Compound 25, 2-hydroxy-2,2-diphenylethyl 1-methyl-1,2,5,6-tetrahydropyridine-3-carboxylate]"
188 ± 18,1.57 ± 0.04,> 1000,634 ± 90,115 to 119,"CN1CCC=C(C(=O)OCc2cccc(O)c2)C1 [Compound 18b, 3-hydroxybenzyl 1-methyl-1,2,5,6-tetrahydropyridine-3-carboxylate]"

# Continued, compound first:
SMILES,Ki (hM3) [nM],chromatographic logD [1],Ki (hM2) [nM],Ki (hM4) [nM],melting point [°C]
"CN1CCC=C(C(=O)OCc2ccc(CO)cc2)C1 [Compound 8c, 4-(hydroxymethyl)benzyl 1-methyl-1,2,5,6-tetrahydropyridine-3-carboxylate]",663 ± 56,1.03 ± 0.04,> 1000,697 ± 132,
"CN1CCC=C(C(=O)OC(c2ccccc2)c2ccc(CO)cc2)C1 (centres unmarked) [Compound 10c, (4-(hydroxymethyl)phenyl)(phenyl)methyl 1-methyl-1,2,5,6-tetrahydropyridine-3-carboxylate]",150 ± 26,2.8 ± 0.2,980 ± 32,93 ± 23,
"CN1CCC=C(C(=O)OC(c2ccccc2)c2cccc(O)c2)C1 (centres unmarked) [Compound 17b, (3-hydroxyphenyl)(phenyl)methyl 1-methyl-1,2,5,6-tetrahydropyridine-3-carboxylate]",20.4 ± 1.2,2.69 ± 0.01,172 ± 20,18.4 ± 5.8,143 to 144
